According to patent publication US5225543A, “Receptors method for purification of G protein-linked” (priority 1991, dated 1993):
Where no end group is shown, it is not given here. The star is where a group is joined. 125I = [125I]*

Tests used:
[1] = test system: somatostatin receptor (GH4 C1 membranes); assay: Binding, CHAPS solubilization and recovery of SRIF receptor:[^125 I]Tyr11-S14 complex (FIG. 1, Table 1); set-up: species or system rat; settings: for CPM recovered, B. Nonspecific: 10^-6 M cold S14; for CPM recovered, A. Total: without cold S14
Protocol: FIG. 1 illustrates separation of receptor-bound and free [^125 I]Tyr11-S14. Radioligand is bound to GH4 C1 membranes as described in "Materials and Methods". The binding incubations contain 2 mg membrane protein and 6×10^6 cpm of radioligand in 8 ml. A non-specific binding sample is identical except for the addition of 1 uM cold S14. Initial cpm bound were 1.43×10^6 (total) and 0.65×10^6 (non-specific). After the binding step, membranes are resuspended at 1 […] in the presence of 1% CHAPS detergent in a buffer containing 25 mM Tris (pH 8), 10% glycerol and 0.2 mM CaCl2 (solubilization buffer). A protease inhibitor cocktail ("100×4 pase" described in "Materials and Methods") is also added as 1% of final volume. Solubilization is allowed to proceed for 1 hour on ice, and then the mixture is centrifuged for 30 minutes at 100,000×g. CPM in the 100,000×g supernatant were 0.61×10^6 (total) and 0.29×10^6 (non-specific). Free [^125 I]Tyr11-S14 is added to the non-specific binding sample to give equal cpm in the two samples. Then 0.25 ml aliquots of each supernatant ([…]) are loaded onto 0.8×13 cm columns of Sephadex G-50. The columns are eluted at a flow rate of 0.7 ml/min with solubilization buffer + 1% BSA. 0.18 ml fractions are collected and counted for radioactivity.
0.18 ml samples are collected. […] The mixture is held on ice for 15 minutes.
[^125 I]Tyr11-S14 is bound to GH4 C1 membranes as described above ("Methods: Receptor Binding Methods, 4."), except that these binding assays contain 2 mg membrane protein in 8 ml (0.25 mg membrane protein/ml). Radioligand is […]. A non-specific binding sample is identical except for the addition of 1 uM cold S14. Initial cpm bound is 1.43×10^6 (total) and 0.65×10^6 (nonspecific). After the binding step, membranes are solubilized in solubilization buffer containing 0.2 mM CaCl2 and 1% CHAPS ("Methods: Membrane Solubilization"). CPM in the 100,000×g supernatants are 0.61×10^6 (total) and 0.29×10^6 (nonspecific). Free [^125 I]Tyr11-S14 is added to the nonspecific binding sample to give equal cpm in the two samples. Then 0.25 ml aliquots of each supernatant (75-80,000 cpm) are loaded onto 0.8×13 cm columns of Sephadex G-50. The columns are eluted as described in "Methods: Assay of Solubilized Receptors, 1." and the fractions counted for radioactivity.
A peak of high MW material eluting in the column void volume (peak I; 34% of total cpm) contain specifically bound radioactivity. […] Peak II in FIG. 1 represents free [^125 I]Tyr11-S14, and is the major peak in the nonspecific binding sample. In FIG. 1 it is important to note that just before applying samples to the columns, free [^125 I]Tyr11-S14 is added to the non-specific binding sample to equalize the cpm in the two samples. […] The GFB/PEI method is used in subsequent experiments.
0.25 ml samples containing solubilized R:L complex, from the preparation described in FIG. 1 are separated from free radioligand either by: (1) chromatography on Sephadex G-50 (see FIG. 1), (2) Precipitation with polyethyleneglycol+bovine gamma globulin with collection of the precipitates on GFB filters or (3) adsorption on polyethyleneimine-coated,GFB filters (for methods 2 and 3 see "Methods: Assay of Solubilized Receptors, 2 and 3"). Radioactivity recovered in peak I (Method 1) or on filters (Methods 2 and 3) is compared in the Table.

[2] = target: T1, SRIF receptor (GH4 C1 membranes) (Rattus norvegicus, UniProt P30680); assay: Scatchard analysis of [^125 I]-labelled ligand binding to GH4 C1 membranes (FIG. 5); settings: read-out: dissociation constant (KD)
T1 construct: GH4 C1 rat pituitary tumor cells; endogenous in cells; host or cells: GH4 C1 rat pituitary tumor cells (isolated membranes)
Protocol: 1. Standard Binding Assays--Binding assays are done in a binding buffer containing 50 mM HEPES (pH 7.4), 0.5% BSA and 5 mM MgCl2. The standard assay for [^125 I]SRIF analog binding to GH4 CL membranes, done in 96 well microtiter plates (Dynatech Immulon II Removawell plates), is carried out as follows: 1. Radioligand is diluted in binding buffer+PMSF/Baci to the desired cpm per vol. of 50 μl and then 50 μl aliquots are added to the wells. For non-specific binding samples, 5 μl of 40 μM cold S14 is also added per well. 2. Binding is initiated by adding 150 μl per well of membrane diluted to the desired concentration (10-30 ug membrane protein/well) in binding buffer+PMSF/Baci. Plates are then covered with Linbro mylar plate sealers (Flow Labs) and placed on a Dynatech Microshaker II and binding is allowed to proceed at room temperature for 1-2 hours. Binding is stopped by centrifuging the plate for 15 minutes at 2,000×g. The supernatants are dumped off and membrane pellets washed once by addition of 200 μl of ice cold binding buffer, brief shaking and recentrifugation. Finally the individual wells are placed in 12×75 mm tubes and counted in an LKB Gammamaster counter (78% efficiency). Specific binding by this method is identical to that measured when free ligand is removed by rapid (3-5 seconds) filtration and washing on polyethyleneimine-coated glass fiber filters.
3. […]

[3] = target: T1, SRIF receptor (GH4 C1 membranes); assay: Binding of [^125 I] biotinyl-SRIF ligands to GH4 C1 membranes (CPM bound/mg); settings: radioligand 0.77×10^6 cpm/ml
Protocol: 4. Larger scale binding assays to obtain membrane pellets for studies on solubilization of receptor:ligand complex and for receptor purification are also carried out. These are identical to the standard assays except that: (a) Binding is carried out in polypropylene tubes in volumes from 1-250 ml, with the wash step being done in the same volume as initially used for binding, (b) Concentration of membrane protein is always 0.5 mg/ml, (c) For receptor purification, BSA concentration in the binding buffer is reduced to 0.25% and the wash step is done with binding buffer without BSA. This is to reduce BSA contamination of the purified receptor.
To compare the three biotinyl-SRIF analogs in terms of binding to streptavidin, the following experiment is done. [^125 I]Bio-SRIF analogs are bound to GH4 C1 membranes as described ("Methods: Receptor Binding Methods, 4"). All radioligands are at a concentration of 0.77×10^6 cpm/ml. For each radioligand, a control for non-specific binding is done in the presence of 1 uM cold S14. […] At the times shown, the SA beads are spun down and 100 ul samples of supernatant are counted. The cpm are compared to initial cpm in the sample and % binding to SA is calculated from this. […]

[4] = test system: streptavidin (SA-agarose); assay: Binding of [^125 I]-labelled biotinyl-SRIFs (solubilized R:L complex) to immobilized streptavidin (Table 3)
Protocol: 3. Adsorption of solubilized R:L complex to streptavidin. Immobilized streptavidin (streptavidin cross-linked to 6% beaded agarose, Pierce Chemical Co.; "SA-agarose") is washed in solubilization buffer and added to the solubilized membranes as 1/30 of the final volume. This mixture is incubated with constant stirring by end-over-end rotation for 4-5 hours at 4°-10° C. Then the mixture is applied to a column and the non-bound material is washed through. Binding of radioligand to SA-agarose is determined by comparing cpm in the 100,000×g supernatant with that in the column effluent after adsorption to SA-agarose. Finally, the column is washed with 12-15 column volumes of solubilization buffer+0.15% deoxycholate:lysolecithin+1/500 (vol/vol) 100×4pase.
To compare the three biotinyl-SRIF analogs in terms of binding to streptavidin, the following experiment is done. [^125 I]Bio-SRIF analogs are bound to GH4 C1 membranes as described ("Methods: Receptor Binding Methods, 4"). All radioligands are at a concentration of 0.77×10^6 cpm/ml. For each radioligand, a control for non-specific binding is done in the presence of 1 uM cold S14. CPM bound/mg membrane protein after the binding step are as follows: [^125 I]Bio-6C-S14=755,020 (total) and 43,361 (non-specific); [^125 I]Bio-12C=S14=633,134 (total) and 39,538 (nonspecific); [^125 I]Bio-S28=1,065,512 (total) and 35,049 (nonspecific). The membrane pellets are solubilized in solubilization buffer containing 0.15% deoxycholate:lysolecithin and 0.2 mM MgCl2 as described ("Methods: Membrane Solubilization"). […] One ml samples of solubilized membranes are incubated with 0.05 ml vols of streptavidin-agarose at 4°-10° C. on a tube rotator for the times shown. Non-specific binding samples are not done due to the low levels of non-specific binding. At the times shown, the SA beads are spun down and 100 ul samples of supernatant are counted. The cpm are compared to initial cpm in the sample and % binding to SA is calculated from this. Also, it should be noted that binding of cpm from the supernatant is considered to parallel the binding of R:L complex. Several observations confirm that this is a valid assumption.
CPM are determined for 100 ul samples of initial 100,000×g supernatant (containing soluble R:L complex) and supernatant after incubation with SA-agarose for times shown.

[5] = GFB/PEI filters, triplicate, SE 5%
[6] = PEG precipitation, triplicate, SE 5%

T1 sequence (P30680 whole entry): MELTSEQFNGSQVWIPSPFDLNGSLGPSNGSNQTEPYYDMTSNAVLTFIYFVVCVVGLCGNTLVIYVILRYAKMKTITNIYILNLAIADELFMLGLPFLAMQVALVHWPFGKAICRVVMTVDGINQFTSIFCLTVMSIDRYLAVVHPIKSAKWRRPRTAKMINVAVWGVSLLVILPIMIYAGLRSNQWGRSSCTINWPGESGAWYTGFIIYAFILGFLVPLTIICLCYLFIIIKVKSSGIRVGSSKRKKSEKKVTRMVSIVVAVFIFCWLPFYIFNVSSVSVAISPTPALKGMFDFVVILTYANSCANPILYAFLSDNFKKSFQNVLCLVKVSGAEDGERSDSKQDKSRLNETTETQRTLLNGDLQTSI

[^125 I]Tyr11-S14: non-biotinylated radioligand, [^125 I]Tyr11-S14 (AGCKNFFWKTY(125I)TSC; ends and bridges not checked; UniProt P61278 103-116, looked up, variant F11Y)
Initial cpm bound, nonspecific ([1]; 2 mg membrane protein in 8 ml, plus 1 uM cold S14): 0.65×10^6 cpm
Initial cpm bound, total ([1]; 2 mg membrane protein in 8 ml, total): 1.43×10^6 cpm
peak I (void volume) share of total cpm ([1]; 1% CHAPS, Sephadex G-50): 34 % of total cpm
specifically bound ligand recovered, of initial specifically bound cpm on intact membranes ([1]; 1% CHAPS, Sephadex G-50 peak I): 11%
CPM in 100,000×g supernatant, nonspecific ([1]; 1% CHAPS, plus 1 uM cold S14): 0.29×10^6 CPM
CPM in 100,000×g supernatant, total ([1]; 1% CHAPS, total): 0.61×10^6 CPM
Specifically bound ligand recovered (A-B) ([1]; GFB/PEI filters): 20,340 CPM
CPM recovered, B. Nonspecific [1, 5]: 7,193 CPM
CPM recovered, A. Total [1, 5]: 27,533 CPM
Specifically bound ligand recovered (A-B) ([1]; PEG precipitation): 17,272 CPM
CPM recovered, B. Nonspecific [1, 6]: 7,803 CPM
CPM recovered, A. Total [1, 6]: 23,075 CPM
Specifically bound ligand recovered (A-B) ([1]; Sephadex G-50): 16,840 CPM
CPM recovered, B. Nonspecific ([1]; Sephadex G-50): 9,104 CPM
CPM recovered, A. Total ([1]; Sephadex G-50): 23,944 CPM
Kd [2]: 0.1 nM

biotinyl-NH(Leu8, D-Trp22, [^125 I]Tyr25)SRIF [[^125 I]Bio-S28]
Kd [2]: 0.2 nM
CPM bound/mg membrane protein, nonspecific ([3]; in presence of 1 uM cold S14): 35,049 CPM bound/mg membrane protein
CPM bound/mg membrane protein, total ([3]; total): 1,065,512 CPM bound/mg membrane protein
binding of solubilized R:L complex to immobilized streptavidin vs Bio-6C-S14 and Bio-12C-S14 [4]: binds somewhat better
Initial CPM ([4]; 100 ul of initial 100,000×g supernatant): 92,534 CPM
% Binding of radioligand to SA-agarose, 1 hour ([4]; 1 hour): 66%
% Binding of radioligand to SA-agarose, 3 hours ([4]; 3 hours): 82%
Non-bound CPM, 1 hour ([4]; supernatant after 1 hour with SA-agarose): 31,645 CPM
Non-bound CPM, 3 hours ([4]; supernatant after 3 hours with SA-agarose): 17,098 CPM
